Test results: patent US20240384350A1, “METHODS OF TREATING CANCER WITH KINASE INHIBITORS” (BOARD OF REGENTS, THE UNIVERSITY OF TEXAS SYSTEM, priority 2021, published 2024)

Legend:
Test in all cases: Ba/F3 drug screening, Cell Titer Glo, IC50 Mut/WT
Format in all cases: cell-based
EGFR A763insFQEA = target: T1, EGFR A763insFQEA (Homo sapiens, UniProt P00533, INS763FQEA); settings: Classical-Like, 72 hours
T1 construct: expressed in transfected cells; host or cells: Ba/F3 cells, retroviral pBabe-Puro vector

EGFR R776H = target: T2, EGFR R776H (Homo sapiens, UniProt P00533, R776H); settings: Ba/F3 cells, EGFR R776H (PACC), Mut/WT
T2 construct: host or cells: Ba/F3

EGFR L858R/T790M/C797S = target: T3, EGFR L858R/T790M/C797S (Homo sapiens, UniProt P00533, C797S/L858R/T790M); settings: T790M-like-3R, 72 hours
T3 construct: expressed in transfected cells; host or cells: Ba/F3

EGFR Ex19del G796S = target: T4, EGFR Ex19del G796S (Homo sapiens, UniProt P00533, DEL746-750/G796S); settings: Ba/F3 cells, EGFR Ex19del G796S (PACC), Mut/WT
T4 construct: expressed in transfected cells; host or cells: Ba/F3
Description: (§1) Data represent the ratio of the IC50 value for a given TKI for cells with a PACC EGFR mutation to the IC50 value for cells with wildtype EGFR.
(§2) Ba/F3 cell generation, drug screening, and IC50 approximations. Ba/F3 cells were obtained as a gift from Dr. Gordon Mills (MD Anderson Cancer Center), and maintained in RPMI (Sigma) containing 10% FBS, 1% penicillin/streptomycin, and 10 ng/ml recombinant mIL-3 (R&D Biosystems). To establish stable Ba/F3 cell lines, Ba/F3 cells were transduced with retroviruses containing mutant EGFR plasmids for 12-24 hours.
(§3) After 48-72 hours of transduction, 2 μg/ml puromycin (Invitrogen) was added to Ba/F3 cell lines in complete RPMI. To select for EGFR positive cell lines, cells were stained with PE-EGFR (Biolegend) and sorted by FACS. After sorting, EGFR positive cells were maintained in RPMI containing 10% FBS, 1% penicillin/streptomycin, and 1 ng/ml EGF to support cell viability. Drug screening was performed as previously described^41,42. Shortly, cells were plated in 384-well plates (Greiner Bio-One) at 2000-3000 cells per well in technical triplicate. Seven different concentrations of TKIs or DMSO vehicle were added to reach a final volume of 40 μL per well. After 72 hours, 11 μL of Cell Titer Glo (Promega) was added to each well. Plates were incubated for a minimum of 10 minutes, and bioluminescence was determined using a FLUOstar OPTIMA plate reader (BMG LABTECH). Raw bioluminescence values were normalized to DMSO control treated cells, and values were plotted in GraphPad Prism. […] Drug screens were performed in technical triplicate on each plate and either duplicate or triplicate biological replicates.

EGFR Ex19del G724S = target: T5, EGFR Ex19del G724S (Homo sapiens, UniProt P00533, DEL746-750/G724S); settings: Ba/F3 cells, EGFR Ex19del G724S (PACC), Mut/WT
T5 construct: expressed in transfected cells; host or cells: Ba/F3
Description: as §1, §2, §3

EGFR L833F = target: T6, EGFR L833F (Homo sapiens, UniProt P00533, L833F); settings: Classical-Like, 72 hours
T6 construct: expressed in transfected cells; host or cells: Ba/F3 cells, retroviral pBabe-Puro vector

EGFR T725M = target: T7, EGFR T725M (Homo sapiens, UniProt P00533, T725M); settings: Classical-Like, 72 hours
T7 construct: expressed in transfected cells; host or cells: Ba/F3 cells, retroviral pBabe-Puro vector (vector made by GeneScript from EGFR WT)

EGFR L858R = target: T8, EGFR L858R (Homo sapiens, UniProt P00533, L858R); settings: Classical-Like, 72 hours
T8 construct: expressed in transfected cells; host or cells: Ba/F3 cells, retroviral pBabe-Puro vector
Description: (§4) Data represent the ratio of the IC50 value for a given TKI for cells with a classical-like EGFR mutation to the IC50 value for cells with wildtype EGFR.
as §2
(§5) After 48-72 hours of transduction, 2 μg/ml puromycin (Invitrogen) was added to Ba/F3 cell lines in complete RPMI. To select for EGFR positive cell lines, cells were stained with PE-EGFR (Biolegend) and sorted by FACS. After sorting, EGFR positive cells were maintained in RPMI containing 10% FBS, 1% penicillin/streptomycin, and 1 ng/ml EGF to support cell viability. […] Shortly, cells were plated in 384-well plates (Greiner Bio-One) at 2000-3000 cells per well in technical triplicate. Seven different concentrations of TKIs or DMSO vehicle were added to reach a final volume of 40 μL per well. After 72 hours, 11 μL of Cell Titer Glo (Promega) was added to each well. Plates were incubated for a minimum of 10 minutes, and bioluminescence was determined using a FLUOstar OPTIMA plate reader (BMG LABTECH). Raw bioluminescence values were normalized to DMSO control treated cells, and values were plotted in GraphPad Prism. […] Drug screens were performed in technical triplicate on each plate and either duplicate or triplicate biological replicates.

EGFR S768dupSVD = target: T9, EGFR S768dupSVD (Homo sapiens, UniProt P00533, DUP768-770); settings: Ex20, 72 hours
T9 construct: expressed in transfected cells; host or cells: Ba/F3 cells, retroviral pBabe-Puro vector

EGFR E709K L858R = target: T10, EGFR E709K L858R (Homo sapiens, UniProt P00533, E709K/L858R); settings: Classical-Like, 72 hours
T10 construct: expressed in transfected cells; host or cells: Ba/F3 cells, retroviral pBabe-Puro vector

EGFR Ex19del T854I = target: T11, EGFR Ex19del T854I (Homo sapiens, UniProt P00533, DEL746-750/T854I); settings: Ba/F3 cells, EGFR Ex19del T854I (PACC), Mut/WT
T11 construct: expressed in transfected cells; host or cells: Ba/F3 (retroviral transduction, pBabe-Puro based vectors)

EGFR Ex19del/T790M/G724S = target: T12, EGFR Ex19del/T790M/G724S (Homo sapiens, UniProt P00533, DEL746-750/G724S/T790M); settings: T790M-like-3S, 72 hours
T12 construct: expressed in transfected cells; host or cells: Ba/F3
Description: (§6) Data represent the ratio of the IC50 value for a given TKI for cells with a T790M-like-3S EGFR mutation to the IC50 value for cells with wildtype EGFR.
as §2, §3

EGFR Ex19del/C797S = target: T13, EGFR Ex19del/C797S (Homo sapiens, UniProt P00533, C797S/DEL746-750); settings: Ba/F3 cells, EGFR Ex19del/C797S (PACC), Mut/WT
T13 construct: expressed in transfected cells; host or cells: Ba/F3
Description: as §1, §2, §3

EGFR L858R/T790M/L718Q = target: T14, EGFR L858R/T790M/L718Q (Homo sapiens, UniProt P00533, L718Q/L858R/T790M); settings: T790M-like-3R, 72 hours
T14 construct: expressed in transfected cells; host or cells: Ba/F3

EGFR L858R/V834L = target: T15, EGFR L858R/V834L (Homo sapiens, UniProt P00533, L858R/V834L); settings: Classical-Like, 72 hours
T15 construct: expressed in transfected cells; host or cells: Ba/F3 cells, retroviral pBabe-Puro vector
Description: as §4, §2, §5

EGFR L718Q T790M = target: T16, EGFR L718Q T790M (Homo sapiens, UniProt P00533, L718Q/T790M); settings: T790M-like-3R, 72 hours
T16 construct: expressed in transfected cells; host or cells: Ba/F3

EGFR S720P = target: T17, EGFR S720P (Homo sapiens, UniProt P00533, S720P); settings: Classical-Like, 72 hours
T17 construct: expressed in transfected cells; host or cells: Ba/F3 cells, retroviral pBabe-Puro vector (vector made by GeneScript from EGFR WT)

EGFR A767insASV = target: T18, EGFR A767insASV (Homo sapiens, UniProt P00533, DUP767-769); settings: Ex20, 72 hours
T18 construct: expressed in transfected cells; host or cells: Ba/F3 cells, retroviral pBabe-Puro vector
Description: (§7) Data represent the ratio of the IC50 value for a given TKI for cells with an ex20ins EGFR mutation to the IC50 value for cells with wildtype EGFR.
as §2
(§8) After 48-72 hours of transduction, 2 μg/ml puromycin (Invitrogen) was added to Ba/F3 cell lines in complete RPMI. To select for EGFR positive cell lines, cells were stained with PE-EGFR (Biolegend) and sorted by FACS. After sorting, EGFR positive cells were maintained in RPMI containing 10% FBS, 1% penicillin/streptomycin, and 1 ng/ml EGF to support cell viability. Drug screening was performed as previously described^41,42. Shortly, cells were plated in 384-well plates (Greiner Bio-One) at 2000-3000 cells per well in technical triplicate. Seven different concentrations of TKIs or DMSO vehicle were added to reach a final volume of 40 μL per well. After 72 hours, 11 μL of Cell Titer Glo (Promega) was added to each well. Plates were incubated for a minimum of 10 minutes, and bioluminescence was determined using a FLUOstar OPTIMA plate reader (BMG LABTECH). Raw bioluminescence values were normalized to DMSO control treated cells, and values were plotted in GraphPad Prism. […] Drug screens were performed in technical triplicate on each plate and either duplicate or triplicate biological replicates. […] Statistical differences between groups were determined by ANOVA as described in the figure legends.

EGFR Ex19del L718V = target: T19, EGFR Ex19del L718V (Homo sapiens, UniProt P00533, DEL746-750/L718V); settings: Ba/F3 cells, EGFR Ex19del L718V (PACC), Mut/WT
T19 construct: expressed in transfected cells; host or cells: Ba/F3

EGFR Ex19del T790M C797S = target: T20, EGFR Ex19del T790M C797S (Homo sapiens, UniProt P00533, C797S/DEL746-750/T790M); settings: T790M-like-3R, 72 hours
T20 construct: expressed in transfected cells; host or cells: Ba/F3
Description: Data represent the ratio of the IC50 value for a given TKI for cells with a T790M-like-3R EGFR mutation to the IC50 value for cells with wildtype EGFR.
as §2
After 48-72 hours of transduction, 2 μg/ml puromycin (Invitrogen) was added to Ba/F3 cell lines in complete RPMI. To select for EGFR positive cell lines, cells were stained with PE-EGFR (Biolegend) and sorted by FACS. After sorting, EGFR positive cells were maintained in RPMI containing 10% FBS, 1% penicillin/streptomycin, and 1 ng/ml EGF to support cell viability. […] Shortly, cells were plated in 384-well plates (Greiner Bio-One) at 2000-3000 cells per well in technical triplicate. Seven different concentrations of TKIs or DMSO vehicle were added to reach a final volume of 40 μL per well. After 72 hours, 11 μL of Cell Titer Glo (Promega) was added to each well. Plates were incubated for a minimum of 10 minutes, and bioluminescence was determined using a FLUOstar OPTIMA plate reader (BMG LABTECH). Raw bioluminescence values were normalized to DMSO control treated cells, and values were plotted in GraphPad Prism. […] Drug screens were performed in technical triplicate on each plate and either duplicate or triplicate biological replicates. […] Statistical differences between groups were determined by ANOVA as described in the figure legends.

EGFR L858R S784F = target: T21, EGFR L858R S784F (Homo sapiens, UniProt P00533, L858R/S784F); settings: Classical-Like, 72 hours
T21 construct: expressed in transfected cells; host or cells: Ba/F3 cells, retroviral pBabe-Puro vector (vector made by GeneScript from EGFR L858R)

EGFR L861R = target: T22, EGFR L861R (Homo sapiens, UniProt P00533, L861R); settings: Classical-Like, 72 hours
T22 construct: expressed in transfected cells; host or cells: Ba/F3 cells, retroviral pBabe-Puro vector (vector made by GeneScript from EGFR WT)
Description: as §4, §2, §5

EGFR H773insNPH = target: T23, EGFR H773insNPH (Homo sapiens, UniProt P00533, INS773NPH); settings: Ex20, 72 hours
T23 construct: expressed in transfected cells; host or cells: Ba/F3 cells, retroviral pBabe-Puro vector
Description: as §7, §2, §8

EGFR D770insNPG = target: T24, EGFR D770insNPG (Homo sapiens, UniProt P00533, INS770NPG); settings: Ex20, 72 hours
T24 construct: expressed in transfected cells; host or cells: Ba/F3 cells, retroviral pBabe-Puro vector
Description: as §7, §2, §8

EGFR Ex19del T790M = target: T25, EGFR Ex19del T790M (Homo sapiens, UniProt P00533, DEL746-750/T790M); settings: T790M-like-3S, 72 hours
T25 construct: expressed in transfected cells; host or cells: Ba/F3
Description: as §6, §2, §3

EGFR L747S = target: T26, EGFR L747S (Homo sapiens, UniProt P00533, L747S); settings: Ba/F3 cells, EGFR L747S (PACC), Mut/WT
T26 construct: expressed in transfected cells; host or cells: Ba/F3
Description: as §1, §2, §3

- ratio of IC50 for cells with mutant EGFR to IC50 for cells with wildtype EGFR (Mut/WT) (EGFR A763insFQEA): 0.3966
- ratio of the IC50 value for cells with a PACC EGFR mutation to the IC50 value for cells with wildtype EGFR (EGFR R776H): 3.409
- ratio of IC50 for cells with mutant EGFR to IC50 for cells with wildtype EGFR (Mut/WT) (EGFR L858R/T790M/C797S): 78.11
- ratio of the IC50 value for cells with a PACC EGFR mutation to the IC50 value for cells with wildtype EGFR (EGFR Ex19del G796S): 0.8807
- ratio of the IC50 value for cells with a PACC EGFR mutation to the IC50 value for cells with wildtype EGFR (EGFR Ex19del G724S): 3.178
- ratio of IC50 for cells with mutant EGFR to IC50 for cells with wildtype EGFR (Mut/WT) (EGFR L833F): 0.7284
- ratio of IC50 for cells with mutant EGFR to IC50 for cells with wildtype EGFR (Mut/WT) (EGFR T725M): 0.959
- ratio of IC50 for cells with mutant EGFR to IC50 for cells with wildtype EGFR (Mut/WT) (EGFR L858R): 0.1965
- ratio of IC50 for cells with mutant EGFR to IC50 for cells with wildtype EGFR (Mut/WT) (EGFR S768dupSVD): 1.73
- ratio of IC50 for cells with mutant EGFR to IC50 for cells with wildtype EGFR (Mut/WT) (EGFR E709K L858R): 0.1151
- ratio of the IC50 value for cells with a PACC EGFR mutation to the IC50 value for cells with wildtype EGFR (EGFR Ex19del T854I): 1.699
- ratio of IC50 for cells with mutant EGFR to IC50 for cells with wildtype EGFR (Mut/WT) (EGFR Ex19del/T790M/G724S): 1.673
- ratio of the IC50 value for cells with a PACC EGFR mutation to the IC50 value for cells with wildtype EGFR (EGFR Ex19del/C797S): 49.96
- ratio of IC50 for cells with mutant EGFR to IC50 for cells with wildtype EGFR (Mut/WT) (EGFR L858R/T790M/L718Q): 29.86
- ratio of IC50 for cells with mutant EGFR to IC50 for cells with wildtype EGFR (Mut/WT) (EGFR L858R/V834L): 0.4038
- ratio of IC50 for cells with mutant EGFR to IC50 for cells with wildtype EGFR (Mut/WT) (EGFR L718Q T790M): 26.6
- ratio of IC50 for cells with mutant EGFR to IC50 for cells with wildtype EGFR (Mut/WT) (EGFR S720P): 0.009841
- ratio of IC50 for cells with mutant EGFR to IC50 for cells with wildtype EGFR (Mut/WT) (EGFR A767insASV): 4.661
- ratio of the IC50 value for cells with a PACC EGFR mutation to the IC50 value for cells with wildtype EGFR (EGFR Ex19del L718V): 1.339
- ratio of IC50 for cells with mutant EGFR to IC50 for cells with wildtype EGFR (Mut/WT) (EGFR Ex19del T790M C797S): 56.35
- ratio of IC50 for cells with mutant EGFR to IC50 for cells with wildtype EGFR (Mut/WT) (EGFR L858R S784F): 0.0429
- ratio of IC50 for cells with mutant EGFR to IC50 for cells with wildtype EGFR (Mut/WT) (EGFR L861R): 0.2335
- ratio of IC50 for cells with mutant EGFR to IC50 for cells with wildtype EGFR (Mut/WT) (EGFR H773insNPH): 3.997
- ratio of IC50 for cells with mutant EGFR to IC50 for cells with wildtype EGFR (Mut/WT) (EGFR D770insNPG): 1.976
- ratio of IC50 for cells with mutant EGFR to IC50 for cells with wildtype EGFR (Mut/WT) (EGFR Ex19del T790M): 0.1837
- ratio of the IC50 value for cells with a PACC EGFR mutation to the IC50 value for cells with wildtype EGFR (EGFR L747S): 4.201
SMILES: C=CC(=O)Nc1cc(Nc2nccc(-c3c[nH]c4ccccc34)n2)c(OC)cc1N(C)CCN(C)C [AZ5104]
